Measured values: patent US20230151342A1, “ZINC FINGER DEGRADATION DOMAINS” (THE BROAD INSTITUTE, INC, priority 2020, published 2023)
Where two headings read alike, the source gives them in different places. Where no end group is shown, it is not given here.

Tests used:
[1] = test system: Jurkat cells expressing individual zinc fingers in the protein degradation reporter; assay: Validation of individual zinc fingers in eGFP/mCherry protein degradation reporter (single reporter degradation experiments); type: cell-based
Description: FIG. 18A-18B Validation of individual hybrid zinc finger degrons. (FIG. 18A) Vehicle control-normalized eGFP/mCherry fluorescence ratios measured by flow cytometry for Jurkat cells expressing the indicated minimal 23 amino acid zinc finger degron constructs after treatment with pomalidomide or vehicle control. Experiments were performed in triplicate and error bars indicate standard deviation. […] (FIG. 18B) IC50 values for lenalidomide- or pomalidomide-induced degradation of endogenous and hybrid zinc fingers calculated from single reporter degradation experiments. (FIG. 18C) Jurkat cells expressing the 19BBz-d91.3 CAR were treated overnight with lenalidomide and the E1 inhibitor MLN7243 (500 nM), the Neddylation inhibitor […] (5000 nM), the lysosomal acidification inhibitor Chloroquine (50,000 nM), or the lysosomal acidification inhibitor Bafilomycin A (100 nM). CAR degradation requires ubiquitin ligase and Cullin-RING ligase function, and is insensitive to inhibition of autophagy.
FIG. 23. Validation of individual hybrid zinc finger degrons. Individual 23 amino acid zinc finger domains were cloned into the Cilantro 2 protein degradation reporter lentivector. Jurkat cells were transduced with each of these viruses. The GFP/mCherry ratio was calculated in the presence of various thalidomide analogs, indicative of drug-dependent degradation. Dark Gray=hybrid zinc fingers. Light Gray=endogenous zinc fingers. Dotted line=ZFP91-IKZF3.
Jurkat cells were created expressing each of the 6 hybrid and 8 associated parent ZFs and subjected them to a range of doses of lenalidomide, pomalidomide, avadomide, and iberdomide. […] The IC50 for degradation was lower for the 6 hybrid ZFs than their parent ZFs (FIG. 18B). […] One of these validated hybrids, ZFP91-IKZF3, was chosen with 1.6-6.0-times lower IC50 for degradation than IKZF3 across the tested thalidomide derivatives (FIG. 11G) hereafter termed “d91.3”, as a super degron tag for further CAR engineering, which was incorporated for evaluation of on and off-switch CARs.
Jurkat cells expressing a library of 440 C2H2 zinc fingers in a eGFP/mCherry protein degradation reporter vector were treated with DMSO or thalidomide analog drug for 16 hours. mCherry^+eGFP^low cell populations were isolated by FACS in triplicate, and the relative frequency of individual ZFs was quantified with next-generation sequencing. For validation, Jurkat cells were engineered to express individual zinc fingers in the protein degradation reporter; the eGFP:mCherry ratio was determined by flow cytometry after 16 hour incubation with varying concentrations of thalidomide analogs.

K562-CD19 cells = assay: Jurkat CAR functional assay: CD69 expression after co-culture with K562-CD19 cells; type: cell-based; conditions: lenalidomide
Source text: FIG. 12A-12D—ON-switch split CARs only function in the presence of lenalidomide. (FIG. 12A) Schematic of split CAR constructs. Each split CAR is composed of the indicated antigen-binding part A and the ITAM-containing part B. The lenalidomide-induced dimerization module is encoded by zinc fingers from IKZF3 or the engineered 913 zinc finger and a fragment of CRBN (CRBNΔ3). The intracellular domains of each split CAR part A is protected from CRL4^CRBN ubiquitination by K>R “K0” substitutions. The control second generation CAR FMC63-CD28-CD3z was also used. sCAR, split CAR. […] (FIG. 12C) Primary T cells were infected with lentiviruses encoding parts A and B of split CAR 913. Untransduced cells and cells expressing components A only, B only, and both A+B were purified by FACS. Cytotoxic activity of each sorted cell population was measured after overnight co-culture with NALM6 target cells and lenalidomide or vehicle control at the indicated effector:target ratios. The maximum plasma concentration for once daily 25 mg lenalidomide in multiple myeloma patients is indicated. (FIG. 12D) Scatterplots showing the production of cytokines after co-culture (1:1 CAR T:NALM6 ratio) in the presence of 1000 nM lenalidomide versus vehicle control. Experiments were performed in triplicate and error bars indicate standard deviation.
FIG. 24 Validation of lenalidomide-OFF-switch control of CAR T cell activation, as assessed by expression of the early activation marker CD69, in Jurkat T cells expressing various super-degron tagged chimeric antigen receptors. Regulation of CAR T cell activation with the indicated super-degrons, in comparison to the previously described degron d913. […]
Thalidomide analogs control degradable CAR T cell activation and effector functions in vitro and in vivo. […] Then cytokine production was analyzed in response to antigen stimulation.

NALM6 target cells [2] = assay: Cellular cytotoxicity assay of primary human CAR-T cells; type: cell-based; conditions: 1000 nM lenalidomide; primary split CAR T cells sorted for components A, B
Source text: (§1) To evaluate whether effector functions of primary T cells could be gated by lenalidomide, primary sCAR 913 T cells were generated. As the two split CAR components are delivered by separate lentivectors, this gave the ability to use FACS to purify cells expressing neither, one, or both components.
(§2) Thalidomide analogs control degradable CAR T cell activation and effector functions in vitro and in vivo. To test whether degradable CAR T cell activation could be controlled with lenalidomide, 19BBz, 19BBz-dIKZF3, 19BBz-d91.3, and 19BBz-d91.3* Jurkat CAR T cell lines were co-cultured with K562 cells engineered to express the target antigen CD19 (K562-CD19) and 11 lenalidomide concentrations or vehicle control. […] To evaluate whether effector functions of degradable CAR T cells could be controlled with lenalidomide, primary human CAR T cells were generated and cytotoxicity assays performed comparing the conventional 19BBz CAR to the degradable 19BBz-d91.3 CAR in vitro. […] Then cytokine production was analyzed in response to antigen stimulation.
(§3) Primary human CAR-T effector cells were co-cultured with NALM6 target cells engineered to express click beetle green luciferase at the indicated ratios for 16 hours. Luciferase activity was measured with a Synergy Neo2 luminescence microplate reader (Biotek). Cell culture supernatant from these experiments was analyzed for soluble cytokines (Luminex).

NALM6 target cells [3] = assay: Cytokine production in CAR T:NALM6 co-culture supernatant (Luminex); type: cell-based; conditions: split CAR primary T cells, NALM6, 1000 nM lenalidomide
Source text: as §1, §2, §3

[4] = molecular target: CRBN (substrate receptor of the CRL4^CRBN E3 ubiquitin ligase) (UniProt Q96SW2 1-442); assay: cell-based or functional assay
[5] = CC-122-induced degradation, eGFP:mCherry ratio, 16 hour incubation, read-out: EC50 cc122
[6] = lenalidomide-induced degradation, eGFP:mCherry ratio, 16 hour incubation, read-out: EC50 len
[7] = pomalidomide-induced degradation, eGFP:mCherry ratio, 16 hour incubation, read-out: EC50 pom
[8] = lenalidomide, repeat experiment, read-out: EC50 len repeat

Sequence of CRBN (substrate receptor of the CRL4^CRBN E3 ubiquitin ligase) (Q96SW2 whole entry): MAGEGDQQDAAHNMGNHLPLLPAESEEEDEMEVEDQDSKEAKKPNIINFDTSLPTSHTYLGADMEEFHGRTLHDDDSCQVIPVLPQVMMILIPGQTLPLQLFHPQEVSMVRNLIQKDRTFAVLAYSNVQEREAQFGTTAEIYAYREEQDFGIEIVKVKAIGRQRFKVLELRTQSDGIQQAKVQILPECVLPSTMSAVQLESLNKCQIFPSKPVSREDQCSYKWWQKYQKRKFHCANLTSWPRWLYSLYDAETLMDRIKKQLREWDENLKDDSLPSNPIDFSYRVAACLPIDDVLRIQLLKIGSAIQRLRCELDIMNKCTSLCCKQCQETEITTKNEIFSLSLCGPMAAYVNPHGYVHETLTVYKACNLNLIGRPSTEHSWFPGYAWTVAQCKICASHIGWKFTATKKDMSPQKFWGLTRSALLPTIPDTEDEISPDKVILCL

Row | Molecule | EC50 [1, 5] [nM] | EC50 [1, 6] [nM] | EC50 [1, 7] [nM] | other results
1 | FACVICGRKFRNRGLMQKHLKNH [HZnF_11, reference compound] | 179 | 59.9 | 18.8 | 
2 | FQCNQCGASFTQKGNLLRHIKLH [HZnF_27, reference compound] | 33.5 | 21.9 | 3.1 | EC50 [1, 8]: 28.2 nM
3 | FQCNQCGASFTQPKSLARHLRLH [HZnF_20] | 5.22 | 4.59 | 1.05 | EC50 [1, 8]: 6.09 nM
4 | FQCNQCGASFTRHSHLIEHLKRH [HZnF_10] | 32.4 | 55.4 | 9.05 | 
5 | FQCNQCGASFTRLSTLIQHQKVH [HZnF_06] | 56.1 | 433 | 21.9 | 
6 | FQCNQCGASFTTKGSLIRHHRRH [HZnF_08] | 10.1 | 18.3 | 3.61 | 
7 | FQCPICGLVIKRHSHLIEHLKRH [HZnF_21] | 2.46 | 11.2 | 0.311 | EC50 [1, 8]: 8.23 nM
8 | FQCPICGLVIKRKSYWKRHMVIH [HZnF_16, reference compound] | 50.2 | 60.5 | 8.06 | 
9 | FVCPRCGRGFSQPKSLARHLRLH [HZnF_05, reference compound] | 2.93 | 48 | 8.55 | 
10 | HECKLCGASFRTKGSLIRHHRRH [HZnF_07, reference compound] | 58.5 | 34.8 | 11.3 | 
11 | LQCEICGFTCRQKASLNWHMKKH [HZnF_13, reference compound] | 33 | 57.8 | 5.47 | 
12 | LQCEICGFTCRQKGNLLRHIKLH (FHCNQCGASFTQKGNLLRHIKLH) [HZnF_26] | 13.4 | 22.9 | 0.78 | EC50 [1, 8]: 29.4 nM
13 | LQCEICGFTCRQPKSLARHLRLH [HZnF_23] | 0.983 | 6.45 | 0.146 | EC50 [1, 8]: 4.66 nM
14 | LQCEICGFTCRRHSHLIEHLKRH [HZnF_17] | 73.4 | 149 | 5.29 | 
15 | LQCEICGFTCRWSSHYQYHLRQH [HZnF_04] | 101 | 324 | 14.1 | 
16 | LQCEICGYQCRQPKSLARHLRLH [HZnF_22] | 2.42 | 12.2 | 0.212 | EC50 [1, 8]: 6.59 nM

Row | Molecule | EC50 [1, 5] [nM] | EC50 [1, 6] [nM] | EC50 [1, 7] [nM] | other results
17 | LQCEICGYQCRQRASLNWHMKKH [HZnF_12, reference compound] | 37 | 75.1 |  | 
18 | LQCEICGYQCRRKDRMSYHVRSH [HZnF_25] | 0.693 | 6.64 |  | EC50 [1, 8]: 3.53 nM; pomalidomide-dependent degradation compared with parent ZF ([1]; pomalidomide): more efficient pomalidomide-dependent degradation than either parent ZF
19 | LQCEICGYQCRRLSTLIQHQKVH [HZnF_1, label misprinted] | 7.07 | 22.5 | 1.86 | 
20 | LQCEVCGFQCRQPKSLARHLRLH [HZnF_24] | 5.67 | 10.1 | 0.46 | EC50 [1, 8]: 15 nM
21 | LQCEVCGFQCRQRASLKYHMTKH [HZnF_01, reference compound] | 73.6 | 78.6 | 7.41 | 
22 | YGCNECGKNFGRHSHLIEHLKRH [HZnF_09, reference compound] | 68.2 |  | 0.224 | 
23 | YQCKVCGRAFKQKGNLLRHIKLH [HZnF_14] | 26 | 83.1 | 5.19 | 
24 | YQCKVCGRAFKRLSTLIQHQKVH [HZnF_15] | 35.2 | 71.9 | 5.12 | 
25 | YQCKVCGRAFKRVSHLTVHYRIH [8HZnF__19, label misprinted, reference compound] | 125 | 248 | 16.9 | 
26 | YRCRACGRACSRLSTLIQHQKVH [HZnF_03, reference compound] | 29.5 | 55.2 | 4.47 | 
27 | YSCPVCGLRFKRKDRMSYHVRSH [HZnF_02, reference compound] | 176 | 100 |  | 
28 | sCAR-91.3: lenalidomide ON-switch split CAR with dimerization domain from hybrid d913 zinc finger and CRBNΔ3 (FNVLMVHKRSHTGERPLQCEICGFTCRQKGNLLRHIKLHTGEKPFKCHLCNYACQRRDAL; cysteine pairing not given here; also: fragment of split CAR, other chain or arm left off) |  |  |  | fold lower EC50 than sCAR IKZF3 (K562-CD19 cells; Jurkat T cells exposed to CD19+ target cells): 7 fold; EC50 (K562-CD19 cells; split CAR-Jurkat cells co-cultured with K562-CD19, read-out: EC50 (percentage of CD69+ cells)): 29.3 nM; killing of NALM6 target cells (NALM6 target cells [2]): restricted to T cells expressing both halves of sCAR 91.3 in the presence of 1000 nM lenalidomide; IL2 production in co-culture (NALM6 target cells [3]): required the complete sCAR 91.3 and lenalidomide
29 | LQCEICGYQCRRKDRMSYHVRSH (not fully specified; cysteine pairing not given here) [ZN653_556_578-PATZ1_383_405_J1] |  |  |  | EC50 pom: pomalidomide-induced degradation, eGFP/mCherry reporter, Jurkat [4]: 0.16 nM
30 | LQCEICGYQCRQRASLNWHMKKH (not fully specified; cysteine pairing not given here) [ZN653_556_578-ZN653_556_578_J1] |  |  |  | EC50 pom: pomalidomide-induced degradation, eGFP/mCherry reporter, Jurkat [4]: 5.17 nM
31 | YSCPVCGLRFKRKDRMSYHVRSH (not fully specified; cysteine pairing not given here) [PATZ1_383_405-PATZ1_383_405_J1] |  |  |  | EC50 pom: pomalidomide-induced degradation, eGFP/mCherry reporter, Jurkat [4]: 32.4 nM
